Results from paper PMC8121951, “Structure-based engineering of substrate specificity for pinoresinol-lariciresinol reductases” (Nature Communications, 2021).
Each block holds one molecule with its values, some of them ahead of it.

Key:
AtPrR1 = target: T1, AtPrR1 (Arabidopsis thaliana, UniProt Q9FVQ6); test: X-ray crystal structure, co-crystal; assay type: binding; details: wild type
T1 construct: gene PRR1; full-length, pET-duet-1, E. coli Rosetta (DE3), Ni-NTA and Superdex-200; homodimer
T1 sequence (Q9FVQ6 1-317): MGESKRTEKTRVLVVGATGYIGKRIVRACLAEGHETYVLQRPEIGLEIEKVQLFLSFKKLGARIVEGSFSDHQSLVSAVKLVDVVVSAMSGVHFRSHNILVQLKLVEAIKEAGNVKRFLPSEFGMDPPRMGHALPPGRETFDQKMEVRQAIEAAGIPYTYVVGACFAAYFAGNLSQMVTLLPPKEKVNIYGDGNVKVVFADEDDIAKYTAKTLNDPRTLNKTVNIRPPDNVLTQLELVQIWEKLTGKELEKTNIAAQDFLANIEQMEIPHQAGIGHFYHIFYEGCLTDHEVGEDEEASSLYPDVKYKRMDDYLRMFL

AtPrR2 [1] = target: T2, AtPrR2 (Arabidopsis thaliana, UniProt Q9SVP6); test: X-ray crystal structure, co-crystal; assay type: binding; details: wild type, 1.6 Å
T2 construct: gene PRR2; full-length, pET-duet-1, E. coli Rosetta (DE3), Ni-NTA and Superdex-200; homodimer
T2 sequence (Q9SVP6 1-317): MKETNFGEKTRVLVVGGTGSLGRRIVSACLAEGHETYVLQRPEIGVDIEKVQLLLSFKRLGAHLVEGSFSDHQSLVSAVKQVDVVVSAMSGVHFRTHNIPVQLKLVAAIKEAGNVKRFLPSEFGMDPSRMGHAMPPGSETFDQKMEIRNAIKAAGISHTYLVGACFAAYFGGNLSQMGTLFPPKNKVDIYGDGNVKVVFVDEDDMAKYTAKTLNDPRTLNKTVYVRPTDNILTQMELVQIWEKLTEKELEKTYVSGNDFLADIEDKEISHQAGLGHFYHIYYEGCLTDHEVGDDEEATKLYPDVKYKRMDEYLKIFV

IiPLR1 = target: T3, IiPLR1 (Isatis tinctoria, UniProt I6LRS1); test: X-ray crystal structure, co-crystal; assay type: binding; details: wild type
T3 construct: full-length, pET-duet-1, E. coli Rosetta (DE3), Ni-NTA and Superdex-200; homodimer
T3 sequence (I6LRS1 1-317): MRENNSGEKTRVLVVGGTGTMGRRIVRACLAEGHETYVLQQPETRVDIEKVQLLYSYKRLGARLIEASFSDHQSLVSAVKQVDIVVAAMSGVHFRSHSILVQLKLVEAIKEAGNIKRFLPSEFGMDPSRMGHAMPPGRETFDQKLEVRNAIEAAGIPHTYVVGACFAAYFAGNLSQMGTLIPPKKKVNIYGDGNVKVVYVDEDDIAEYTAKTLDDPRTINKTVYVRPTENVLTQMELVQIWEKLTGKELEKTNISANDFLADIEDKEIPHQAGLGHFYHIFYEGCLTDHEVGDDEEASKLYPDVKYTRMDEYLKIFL

AtPrR2 [2] = target: T4, AtPrR2 (Arabidopsis thaliana, UniProt Q9SVP6, N98S); test: LC-MS product conversion; assay type: biochemical; details: NADPH 150 μM, Tris-HCl pH 7.0, 30 °C, 30 min
T4 construct: gene PRR2; full-length, pET-duet-1, E. coli Rosetta (DE3), Ni-NTA and Superdex-200; homodimer
T4 sequence (Q9SVP6 1-317 N98S): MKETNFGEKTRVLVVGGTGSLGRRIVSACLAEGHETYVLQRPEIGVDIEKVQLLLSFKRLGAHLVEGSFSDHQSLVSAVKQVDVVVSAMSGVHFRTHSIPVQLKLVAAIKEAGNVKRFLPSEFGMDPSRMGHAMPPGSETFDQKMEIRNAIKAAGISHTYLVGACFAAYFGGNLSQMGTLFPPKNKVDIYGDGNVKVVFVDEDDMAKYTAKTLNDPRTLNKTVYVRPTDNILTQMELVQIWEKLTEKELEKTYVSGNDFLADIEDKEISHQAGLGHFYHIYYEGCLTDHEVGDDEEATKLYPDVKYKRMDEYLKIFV

[3] = target: Isatis indigotica pinoresinol-lariciresinol reductase 1 (Isatis indigotica); test: crystal structure; sitting-drop vapour diffusion at 20 or 4 °C, protein 5-10 mg/mL; apo, with NADP+ (1:5) or with NADP+ and substrate/product (1:5:10); homodimer seen in the crystal
[4] = target: the molecule itself; test: as above
[5] = substrate: COc1cc(CC2COC(c3ccc(O)c(OC)c3)C2CO)ccc1O; test: LC-MS substrate consumption, Lineweaver-Burk; assay type: biochemical, Isatis tinctoria; details: NADPH 150 μM, 50 mM Tris-HCl pH 7.0, 10% glycerol, 30 °C, racemic substrate
Description: (§1) LC-MS substrate consumption, Lineweaver-Burk on IiPLR1

[6] = substrate: COc1cc(C2OCC3C(c4ccc(O)c(OC)c4)OCC23)ccc1O; test: LC-MS substrate consumption, Lineweaver-Burk; assay type: biochemical, Isatis tinctoria; details: NADPH 150 μM, 50 mM Tris-HCl pH 7.0, 10% glycerol, 30 °C, racemic substrate
Description: as §1

Molecule: COc1cc(C[C@H]2CO[C@H](c3ccc(O)c(OC)c3)[C@H]2CO)ccc1O [+LAR, (+)-lariciresinol]
X-ray crystal structure, co-crystal (AtPrR1; with NADP+, 1.8 Å): 7CSD (AtPrR1 with NADP^+ and (+)lariciresinol)

Molecule: COc1cc([C@H]2OC[C@H]3[C@@H]2CO[C@@H]3c2ccc(O)c(OC)c2)ccc1O [+PIN, (+)-pinoresinol]
X-ray crystal structure, co-crystal (AtPrR2 [1]; with NADP+): 7CSH (AtPrR2 with NADP^+ and (+)pinoresinol)
X-ray crystal structure, co-crystal (AtPrR1; with NADP+, 2.0 Å): 7CSB (AtPrR1 with NADP^+ and (+)pinoresinol)
X-ray crystal structure, co-crystal (IiPLR1; with NADP+, 2.3 Å): 7CS4 (IiPLR1 with NADP^+ and (+)pinoresinol)

Molecule: COc1cc(C[C@H](CO)[C@@H](CO)Cc2ccc(O)c(OC)c2)ccc1O [+SEC, (+)-secoisolariciresinol]
X-ray crystal structure, co-crystal (IiPLR1; with NADP+, 2.3 Å): 7CS7 (IiPLR1 with NADP^+ and (+)secoisolariciresinol)

Molecule: COc1cc(C[C@@H]2CO[C@@H](c3ccc(O)c(OC)c3)[C@@H]2CO)ccc1O [-LAR, (−)-lariciresinol]
X-ray crystal structure, co-crystal (AtPrR1; with NADP+, 2.5 Å): 7CSE (AtPrR1 with NADP^+ and (−)lariciresinol)
X-ray crystal structure, co-crystal (IiPLR1; with NADP+, 2.2 Å): 7CS6 (IiPLR1 with NADP^+ and (−)lariciresinol)

Molecule: COc1cc([C@@H]2OC[C@@H]3[C@H]2CO[C@H]3c2ccc(O)c(OC)c2)ccc1O [-PIN, (−)-pinoresinol]
X-ray crystal structure, co-crystal (AtPrR1; with NADP+, 2.5 Å): 7CSC (AtPrR1 with NADP^+ and (−)pinoresinol)
X-ray crystal structure, co-crystal (IiPLR1; with NADP+, 2.1 Å): 7CS5 (IiPLR1 with NADP^+ and (−)pinoresinol)

Molecule: COc1cc(C[C@@H](CO)[C@H](CO)Cc2ccc(O)c(OC)c2)ccc1O [-SEC, (−)-secoisolariciresinol]
X-ray crystal structure, co-crystal (AtPrR1; with NADP+, 2.0 Å): 7CSF (AtPrR1 with NADP^+ and (−)secoisolariciresinol)
X-ray crystal structure, co-crystal (IiPLR1; with NADP+, 2.6 Å): 7CS8 (IiPLR1 with NADP^+ and (−)secoisolariciresinol)

X-ray crystal structure, co-crystal (AtPrR1; 2.0 Å): 7CSA (AtPrR1 with NADP^+)
X-ray crystal structure, co-crystal (IiPLR1; 2.4 Å): 7CS3 (IiPLR1 with NADP^+)
Molecule: NC(=O)c1ccc[n+]([C@@H]2O[C@H](COP(=O)(O)OP(=O)(O)OC[C@H]3O[C@@H](n4cnc5c(N)ncnc54)[C@H](OP(=O)(O)O)[C@@H]3O)[C@@H](O)[C@H]2O)c1 [NAP, NADP^+]
X-ray crystal structure, co-crystal (AtPrR2 [1]; with (+)-pinoresinol): 7CSH (AtPrR2 with NADP^+ and (+)pinoresinol)

Molecule: COc1cc(C[C@H]2CO[C@H](c3ccc(O)c(OC)c3)[C@H]2CO)ccc1O [lariciresinol]
LC-MS product conversion (AtPrR2 [2]): AtPrR2 mutant N98S could utilize lariciresinol to produce secoisolariciresinol

stoichiometry N [3]: 2
Molecule: Isatis indigotica pinoresinol-lariciresinol reductase 1 (enzyme)

B1: Arabidopsis thaliana pinoresinol reductase 2 (enzyme, UniProt Q9SVP6 1-317, looked up)
chain: MKETNFGEKTRVLVVGGTGSLGRRIVSACLAEGHETYVLQRPEIGVDIEKVQLLLSFKRLGAHLVEGSFSDHQSLVSAVKQVDVVVSAMSGVHFRTHNIPVQLKLVAAIKEAGNVKRFLPSEFGMDPSRMGHAMPPGSETFDQKMEIRNAIKAAGISHTYLVGACFAAYFGGNLSQMGTLFPPKNKVDIYGDGNVKVVFVDEDDMAKYTAKTLNDPRTLNKTVYVRPTDNILTQMELVQIWEKLTEKELEKTYVSGNDFLADIEDKEISHQAGLGHFYHIYYEGCLTDHEVGDDEEATKLYPDVKYKRMDEYLKIFV
notes: Head-to-tail homodimer in both crystal forms (apo); with NADP+ and (+)-pinoresinol); also called AtPrR2; PrR; source: E. coli Rosetta (DE3), purified (Ni-NTA, Superdex-200); not shown: His tag (inferred from the Ni-NTA purification)
stoichiometry N [4]: 2

B2: Arabidopsis thaliana pinoresinol reductase 1 (enzyme, UniProt Q9FVQ6 1-317, looked up)
chain: MGESKRTEKTRVLVVGATGYIGKRIVRACLAEGHETYVLQRPEIGLEIEKVQLFLSFKKLGARIVEGSFSDHQSLVSAVKLVDVVVSAMSGVHFRSHNILVQLKLVEAIKEAGNVKRFLPSEFGMDPPRMGHALPPGRETFDQKMEVRQAIEAAGIPYTYVVGACFAAYFAGNLSQMVTLLPPKEKVNIYGDGNVKVVFADEDDIAKYTAKTLNDPRTLNKTVNIRPPDNVLTQLELVQIWEKLTGKELEKTNIAAQDFLANIEQMEIPHQAGIGHFYHIFYEGCLTDHEVGEDEEASSLYPDVKYKRMDDYLRMFL
notes: Head-to-tail homodimer in all crystal forms; crystallised apo, with NADP+, or with NADP+ and substrate/product; also called AtPrR1; PrR; source: E. coli Rosetta (DE3), purified (Ni-NTA, Superdex-200); not shown: His tag (inferred from the Ni-NTA purification)
stoichiometry N [4]: 2

B3: IiPLR1 (Isatis tinctoria; V46A) (protein)
chain: MRENNSGEKTRVLVVGGTGTMGRRIVRACLAEGHETYVLQQPETRADIEKVQLLYSYKRLGARLIEASFSDHQSLVSAVKQVDIVVAAMSGVHFRSHSILVQLKLVEAIKEAGNIKRFLPSEFGMDPSRMGHAMPPGRETFDQKLEVRNAIEAAGIPHTYVVGACFAAYFAGNLSQMGTLIPPKKKVNIYGDGNVKVVYVDEDDIAEYTAKTLDDPRTINKTVYVRPTENVLTQMELVQIWEKLTGKELEKTNISANDFLADIEDKEIPHQAGLGHFYHIFYEGCLTDHEVGDDEEASKLYPDVKYTRMDEYLKIFL
notes: full-length, pET-duet-1, E. coli Rosetta (DE3), Ni-NTA and Superdex-200; homodimer
Km [5]: 26.5 ± 0.60 µM
Vmax [5]: 0.023 µM/min
kcat [5]: 0.0135 ± 0.00075 s⁻¹
kcat/Km [5]: 517 ± 33.3 M⁻¹ s⁻¹
Km [6]: 29.4 ± 1.62 µM
Vmax [6]: 3.22 µM/min
kcat [6]: 1.91 ± 0.402 s⁻¹
kcat/Km [6]: 64700 ± 10800 M⁻¹ s⁻¹
